Biological target: Protein kinase C beta type Isoform 2 (Homo sapiens, UniProt P05771)
Assay: Protein Kinase C beta 2 (PKCpII) Assay
Protocol: Protein Kinase C beta 2 (PKCpII) catalyzes the production of ADP from ATP that accompanies the phosphoryl transfer to the PKC Pseudosubstrate peptide (A→S, RFARKGSLRQKNV). This transfer is coupled to the oxidation of β-NADH through the activities of Pyruvate Kinase (PK) and Lactate Dehydrogenase (LDH). β-NADH conversion to NAD+ is monitored by the decrease in absorbance at 340 nm (e=6.22 cm−1 mM−1) using a Molecular Devices SPECTRA max PLUS spectrophotometer.A typical assay was carried out on a 96-well, clear microtiter plate in a Molecular Devices spectrophotometer for 20 minutes at 30° C. in 0.1 mL of assay buffer containing 50 mM HEPES, pH 7.4, 5 nM PKC, 23 units of pyruvate kinase, 33 units of lactate dehydrogenase, 0.15 mM peptide, 0.1 mM ATP, 1 mM DTT, 4 mM PEP, 8 mM MgCl2, 0.3 mM NADH, […]), 10 mg/mL PS, 50 ng/mL PMA, 7.5% DMSO and from about 10,000 nM to 0.169 nM compound inhibitor. Stock solutions of 3-sn-phosphatidyl-L-serine (PS) and phorbol-12-myristate-13-acetate (PMA) were sonicated for 30 seconds just prior to addition to assay buffer and assays were initiated by the addition of 100 μM ATP.

Chain of Protein kinase C beta type Isoform 2 (P05771 as listed by the source): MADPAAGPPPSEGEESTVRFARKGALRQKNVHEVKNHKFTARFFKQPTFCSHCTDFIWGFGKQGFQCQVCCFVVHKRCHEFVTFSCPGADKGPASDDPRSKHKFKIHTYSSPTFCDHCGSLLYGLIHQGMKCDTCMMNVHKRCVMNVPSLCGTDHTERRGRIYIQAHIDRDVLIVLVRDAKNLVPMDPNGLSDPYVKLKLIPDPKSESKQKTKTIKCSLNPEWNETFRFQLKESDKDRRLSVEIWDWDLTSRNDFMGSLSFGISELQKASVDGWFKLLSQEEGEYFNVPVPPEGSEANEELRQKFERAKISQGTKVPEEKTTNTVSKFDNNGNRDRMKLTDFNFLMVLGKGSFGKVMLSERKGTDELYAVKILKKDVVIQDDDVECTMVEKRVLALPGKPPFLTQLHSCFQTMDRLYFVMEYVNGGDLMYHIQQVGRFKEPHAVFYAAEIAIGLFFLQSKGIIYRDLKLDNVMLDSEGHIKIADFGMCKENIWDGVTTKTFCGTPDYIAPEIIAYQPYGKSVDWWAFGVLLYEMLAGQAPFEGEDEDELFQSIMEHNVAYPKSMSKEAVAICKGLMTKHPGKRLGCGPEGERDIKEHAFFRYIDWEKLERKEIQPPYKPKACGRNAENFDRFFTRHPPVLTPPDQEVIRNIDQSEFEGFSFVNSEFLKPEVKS

Ki: 2.63 nM
SMILES: Cc1ncc(F)c(Nc2n[nH]c3c2CN(C(=O)N2C[C@@H](C)N(C)C[C@@H]2C)C3(C)C)n1 [US11220518, Ex. No. H2]

From BindingDB's records for patent US117808 (Pfizer, 2023)
